Reference: US10092551B2, “Spiro-thiazolones” (Hoffmann-La Roche Inc., priority 2014, dated 2018)
Structures can show the parent of a compound that is named as a salt.

target: human V1a receptor (Homo sapiens (Human), UniProt P37288); assay: human V1a receptor binding studies (3H-Vasopressin, SPA beads); conditions: membranes of HEK293 cells transiently transfected with human V1a receptor, Ki by Cheng-Prussoff
Method: The human V1a receptor was cloned by RT-PCR from total human liver RNA. The coding sequence was subcloned in an expression vector after sequencing to confirm the identity of the amplified sequence. […] Cell membranes were prepared from HEK293 cells transiently transfected with the expression vector and grown in 20 liter fermenters with the following protocol.
50 g of cells are re-suspended in 30 ml freshly prepared ice cold Lysis buffer (50 mM HEPES, 1 mM EDTA, 10 mM MgCl2 adjusted to pH=7.4+complete cocktail of protease inhibitor (Roche Diagnostics)). Homogenized with Polytron for 1 min and sonicated on ice for 2×2 minutes at 80% intensity (Vibracell sonicator). The preparation is centrifuged 20 min at 500 g at 4° C., the pellet is discarded and the supernatant centrifuged 1 hour at 43,000 g at 4° C. (19,000 rpm). The pellet is re-suspended in 12.5 ml Lysis buffer+12.5 ml Sucrose 20% and homogenized using a Polytron for 1-2 min. The protein concentration is determined by the Bradford method and aliquots are stored at −80° C. until use. For binding studies 60 mg Yttrium silicate SPA beads (Amersham) are mixed with an aliquot of membrane in binding buffer (50 mM Tris, 120 mM NaCl, 5 mM KCl, 2 mM CaCl2, 10 mM MgCl2) for 15 minutes with mixing. 50 μl of bead/membrane mixture is then added to each well of a 96 well plate, followed by 50 μl of 4 nM 3H-Vasopressin (American Radiolabeled Chemicals). For total binding measurement 100 μl of binding buffer are added to the respective wells, for non-specific binding 100 μl of 8.4 mM cold vasopressin and for compound testing 100 μl of a serial dilution of each compound in 2% DMSO. The plate is incubated 1 h at room temperature, centrifuged 1 min at 1000 g and counted on a Packard Top-Count. Non-specific binding counts are subtracted from each well and data is normalized to the maximum specific binding set at 100%. To calculate an IC 50 the curve is fitted using a non-linear regression model (XLfit) and the Ki is calculated using the Cheng-Prussoff equation.

Chain of human V1a receptor (P37288 whole entry): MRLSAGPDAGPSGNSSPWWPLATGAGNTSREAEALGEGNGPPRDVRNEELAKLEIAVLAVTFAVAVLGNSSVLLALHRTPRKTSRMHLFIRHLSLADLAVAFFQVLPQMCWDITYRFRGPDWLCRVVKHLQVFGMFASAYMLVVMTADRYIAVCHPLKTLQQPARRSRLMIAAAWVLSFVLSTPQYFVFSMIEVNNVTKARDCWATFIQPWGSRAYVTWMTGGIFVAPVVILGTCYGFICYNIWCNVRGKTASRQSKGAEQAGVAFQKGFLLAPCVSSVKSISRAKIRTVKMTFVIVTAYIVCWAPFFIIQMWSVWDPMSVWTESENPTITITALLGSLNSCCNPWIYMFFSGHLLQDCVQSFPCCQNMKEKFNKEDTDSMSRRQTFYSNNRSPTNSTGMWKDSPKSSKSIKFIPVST

Compared with `C/C(=C1/SC(N2CCC3(CC2)OCc2ccccc23)=NC1=O)C1CCOCC1` [Example 78, (5E/Z)-2-(1′H,3H-spiro[2-benzofuran-1,4′-piperidin]-1′-yl)-5-[1-(tetrahydro-2H-pyran-4-yl)ethylidene]-1,3-thiazol-4(5H)-one], `C/C(CS(C)(=O)=O)=C1/SC(N2CCC3(CC2)OCc2ccccc23)=NC1=O` [Example 121, (5E/Z)-5-[1-(methylsulfonyl)propan-2-ylidene]-2-(1′H,3H-spiro[2-benzofuran-1,4′-piperidin]-1′-yl)-1,3-thiazol-4(5H)-one] is lower in “pKi hV1a” value: 7.9 for the first, 7.0 for the second.

First: C/C(=C1/SC(N2CCC3(CC2)OCc2ncccc23)=NC1=O)c1cccnc1 [Example 165, (5E/Z)-5-[1-(pyridin-3-yl)ethylidene]-2-(1′H,7H-spiro[furo[3,4-b]pyridine-5,4′-piperidin]-1′-yl)-1,3-thiazol-4(5H)-one]
Second: C/C(=C1/SC(N2CCC3(CC2)OCc2ncccc23)=NC1=O)c1ccc(C)nc1 [Example 166, (5E/Z)-5-[1-(6-methylpyridin-3-yl)ethylidene]-2-(1′H,7H-spiro[furo[3,4-b]pyridine-5,4′-piperidin]-1′-yl)-1,3-thiazol-4(5H)-one]
The “pKi hV1a” value of the first is higher: 7.5 for the first, 7.1 for the second.

`C/C(=C1/SC(N2CCC3(CC2)OCc2ccccc23)=NC1=O)c1ccc(Cl)nc1` [Example 49, (5E/Z)-5-[1-(6-chloropyridin-3-yl)ethylidene]-2-(1′H,3H-spiro[2-benzofuran-1,4′-piperidin]-1′-yl)-1,3-thiazol-4(5H)-one] and `CC/C(=C1/SC(N2CCC3(CC2)OCc2ccccc23)=NC1=O)c1ccc(Cl)nc1` [Example 133, (5Z)-5-[1-(6-chloropyridin-3-yl)propylidene]-2-(1′H,3H-spiro[2-benzofuran-1,4′-piperidin]-1′-yl)-1,3-thiazol-4(5H)-one] are within 0.2 log units of each other in “pKi hV1a” value: 9.1 for the first, 9.2 for the second.

Compared with `O=C1N=C(N2CCC3(CC2)OCc2ccccc23)SC1=C1c2ccccc2-c2ccccc21` [Example 104, 5-(9H-fluoren-9-ylidene)-2-(1′H,3H-spiro[2-benzofuran-1,4′-piperidin]-1′-yl)-1,3-thiazol-4(5H)-one], `O=C1N=C(N2CCC3(CC2)OCc2ccccc23)SC1=C1c2ccccc2Sc2ccccc21` [Example 102, 2-(1′H,3H-spiro[2-benzofuran-1,4′-piperidin]-1′-yl)-5-(9H-thioxanthen-9-ylidene)-1,3-thiazol-4(5H)-one] is higher in “pKi hV1a” value: 8.2 for the first, 8.6 for the second.

First: O=C1N=C(N2CCC3(CC2)OCc2ccccc23)S/C1=C1/CCc2cc(Cl)ccc21 [Example 10, (5E/Z)-5-(5-chloro-2,3-dihydro-1H-inden-1-ylidene)-2-(1′H,3H-spiro[2-benzofuran-1,4′-piperidin]-1′-yl)-1,3-thiazol-4(5H)-one]
Second: O=C1N=C(N2CCC3(CC2)OCc2ccccc23)S/C1=C1/CCc2cc(O)ccc21 [Example 54, (5E/Z)-5-(5-hydroxy-2,3-dihydro-1H-inden-1-ylidene)-2-(1′H,3H-spiro[2-benzofuran-1,4′-piperidin]-1′-yl)-1,3-thiazol-4(5H)-one]
The “pKi hV1a” value of the first is lower: 6.9 for the first, 7.5 for the second.

Going from `C/C(=C1/SC(N2CCC3(CC2)OCc2ccccc23)=NC1=O)c1ccnc(C)c1` [Example 77, (5E/Z)-5-[1-(2-methylpyridin-4-yl)ethylidene]-2-(1′H,3H-spiro[2-benzofuran-1,4′-piperidin]-1′-yl)-1,3-thiazol-4(5H)-one] to `COc1ccc(/C(C)=C2\SC(N3CCC4(CC3)OCc3ccccc34)=NC2=O)cn1` [Example 85, (5E/Z)-5-[1-(6-methoxypyridin-3-yl)ethylidene]-2-(1′H,3H-spiro[2-benzofuran-1,4′-piperidin]-1′-yl)-1,3-thiazol-4(5H)-one], the “pKi hV1a” value rises from 7.6 to 8.4.

`C/C(=C1/SC(N2[C@@H]3CC[C@H]2C[C@@]2(C3)OC(=O)c3ccccc32)=NC1=O)c1ccc(Cl)cc1` [Example 5, 8-{(5E/Z)-5-[1-(4-chlorophenyl)ethylidene]-4-oxo-4,5-dihydro-1,3-thiazol-2-yl}-3′H-spiro[8-azabicyclo[3.2.1]octane-3,1′-[2]benzofuran]-3′-one] and `C/C(=C1/SC(N2CCC3(CC2)OC(=O)c2ccccc23)=NC1=O)c1ccc(Cl)cc1` [Example 3, 1′-{(5E/Z)-5-[1-(4-chlorophenyl)ethylidene]-4-oxo-4,5-dihydro-1,3-thiazol-2-yl}-3H-spiro[2-benzofuran-1,4′-piperidin]-3-one] are within 0.2 log units of each other in “pKi hV1a” value: 8.9 for the first, 9.0 for the second.

Compared with `CC(C)(C)[Si](C)(C)OC/C(=C1/SC(N2CCC3(CC2)OC(=O)c2ccccc23)=NC1=O)c1ccccc1` [Example 140, 1′-[(5E)-5-(2-{[tert-butyl(dimethyl)silyl]oxy}-1-phenylethylidene)-4-oxo-4,5-dihydro-1,3-thiazol-2-yl]-3H-spiro[2-benzofuran-1,4′-piperidin]-3-one], `CC(C)(C)[Si](C)(C)OC/C(=C1/SC(N2CCC3(CC2)OCc2ccccc23)=NC1=O)c1ccc(Cl)nc1` [Example 129, (5E)-5-[2-{[tert-butyl(dimethyl)silyl]oxy}-1-(6-chloropyridin-3-yl)ethylidene]-2-(1′H,3H-spiro[2-benzofuran-1,4′-piperidin]-1′-yl)-1,3-thiazol-4(5H)-one] is lower in “pKi hV1a” value: 8.9 for the first, 8.2 for the second.

First: CC/C(=C1/SC(N2CCC3(CC2)OCc2ccccc23)=NC1=O)c1ccc(Cl)cc1 [Example 24, (5Z)-5-[1-(4-chlorophenyl)propylidene]-2-(1′H,3H-spiro[2-benzofuran-1,4′-piperidin]-1′-yl)-1,3-thiazol-4(5H)-one]
Second: C/C(=C1/SC(N2CCC3(CC2)OCc2ncccc23)=NC1=O)c1ccc(Cl)cc1 [Example 6, (5E/Z)-5-[1-(4-chlorophenyl)ethylidene]-2-(1′H,7H-spiro[furo[3,4-b]pyridine-5,4′-piperidin]-1′-yl)-1,3-thiazol-4(5H)-one]
The “pKi hV1a” value of the first is lower: 9.1 for the first, 9.3 for the second.

First: C/C(=C1/SC(N2CCC3(CC2)OCc2ccccc23)=NC1=O)c1sc(C)nc1C [Example 112, (5E/Z)-5-[1-(2,4-dimethyl-1,3-thiazol-5-yl)ethylidene]-2-(1′H,3H-spiro[2-benzofuran-1,4′-piperidin]-1′-yl)-1,3-thiazol-4(5H)-one]
Second: C/C(=C1/SC(N2CCC3(CC2)OCc2ccccc23)=NC1=O)c1oc(C)nc1C [Example 86, (5E/Z)-5-[1-(2,4-dimethyl-1,3-oxazol-5-yl)ethylidene]-2-(1′H,3H-spiro[2-benzofuran-1,4′-piperidin]-1′-yl)-1,3-thiazol-4(5H)-one]
The “pKi hV1a” value of the first is lower: 8.6 for the first, 8.9 for the second.

Compared with `[2H]C([2H])([2H])/C(=C1\SC(N2CCC3(CC2)OCc2ccccc23)=NC1=O)c1ccc(C)nc1` [Example 170, (5E)-5-[1-(6-methylpyridin-3-yl)(^2H3)ethylidene]-2-(1′H,3H-spiro[2-benzofuran-1,4′-piperidin]-1′-yl)-1,3-thiazol-4(5H)-one], `[2H]C([2H])([2H])/C(=C1/SC(N2CCC3(CC2)OCc2ccccc23)=NC1=O)c1ccc(C)nc1` [Example 169, (5Z)-5-[1-(6-methylpyridin-3-yl)(^2H3)ethylidene]-2-(1′H,3H-spiro[2-benzofuran-1,4′-piperidin]-1′-yl)-1,3-thiazol-4(5H)-one] is higher in “pKi hV1a” value: 8.0 for the first, 8.8 for the second.

Going from `O=C1N=C(N2CCC3(CC2)OCc2ccccc23)S/C1=C1/CCNC(=O)c2cc(Cl)ccc21` [Example 67, (5E/Z)-8-chloro-5-[4-oxo-2-(1′H,3H-spiro[2-benzofuran-1,4′-piperidin]-1′-yl)-1,3-thiazol-5(4H)-ylidene]-2,3,4,5-tetrahydro-1H-2-benzazepin-1-one] to `CC/C(=C1/SC(N2CCC3(CC2)OCc2ccccc23)=NC1=O)c1ccc(Cl)cc1` [Example 13, (5E/Z)-5-[1-(4-chlorophenyl)propylidene]-2-(1′H,3H-spiro[2-benzofuran-1,4′-piperidin]-1′-yl)-1,3-thiazol-4(5H)-one], the “pKi hV1a” value falls from 8.7 to 8.0.

Compared with `C/C(=C1/SC(N2CCC3(CC2)OCc2ccccc23)=NC1=O)c1ccc[nH]1` [Example 34, (5E/Z)-5-[1-(1H-pyrrol-2-yl)ethylidene]-2-(1′H,3H-spiro[2-benzofuran-1,4′-piperidin]-1′-yl)-1,3-thiazol-4(5H)-one], `C/C(=C1/SC(N2CCC3(CC2)OCc2ccccc23)=NC1=O)c1cc(C)on1` [Example 79] is lower in “pKi hV1a” value: 9.2 for the first, 8.4 for the second.

same assay, conditions: membranes of HEK293 cells transiently transfected with human V1a receptor, Ki by Cheng-Prussoff, read-out: pKi hV1a (converted)

With `NCC(=C1SC(N2CCC3(CC2)OCc2ccccc23)=NC1=O)c1ccccc1` (racemic) [Example 160, (5E/Z)-5-(2-amino-1-phenylethylidene)-2-(1′H,3H-spiro[2-benzofuran-1,4′-piperidin]-1′-yl)-1,3-thiazol-4(5H)-one trifluoroacetate] the Ki was 5.01 nM.
